According to patent publication US10690657B2, “Epithelial tissue model” (Nederlandse Organisatie voor …, priority 2012, dated 2020):

Assays:
porcine jejunal tissue [1] = assay: Transport (apical to basolateral) across porcine jejunal tissue, Papp; details: animal of 12 kg body weight in comparison to an animal of 17 or 20 kg (FIG. 10)
Excerpt: (§1) After anesthesia of the animal and resection of intestinal tissue, the tissue was directly added to ice-cold carbonated (5% CO2 and 95% O2) KRB buffer, pH 7.4, further referred to as KRB buffer. • 2. Intestinal tissue was transported to the test site in ice-cold KRB buffer • 3. At the test site, the intestinal tissue was cut open, rinsed with ice-cold KRB buffer when needed, placed on a petridish, submerged in ice-cold KRB buffer and muscle layers were stripped of. • 4. Intestinal segments with a diameter of 20 mm were punched, added to ice-cold KRB buffer, and kept on ice. • 5. After collecting all the segments needed for the incubation, the system was assembled (including to a total of 24 segments per system) and placed on ice. […] Subsequently, samples were taken from the apical and basolateral compartments for further analysis either using liquid scintillation counting (LSC), UV-Absorbance, Fluorescence, High Pressure Liquid Chromatography (HPLC), Liquid chromatography-Mass Spectrometry (LCMS), Liquid chromatography-Tandem Mass Spectrometry (LC-MSMS), Enzyme-Linked Immunosorbent Assay (ELISA), or Radio-Immuno Assay (RIA). • 11. […]
(§2) The apparent permeability value (Papp) is calculated using the following equation: Papp=(dQ/dt)/(A*C0), where dQ/dt refers to the permeability rate (mol/s), A is the surface area filter insert (cm2) and C0 is the initial concentration (mol/L). […]

porcine jejunal tissue [2] = test system: porcine jejunal tissue
Excerpt: as §1, §2

porcine ileal tissue = assay: Translocation across porcine ileal tissue; format: in vitro ADME; details: between 0 and 60 minutes (FIG. 11)
Experimental: Translocation of the bacterial endotoxin lipopoly-saccharide (LPS) across the porcine ileal tissue during incubation time.

Compound: Cn1c(N)nc2ncc(-c3ccccc3)cc21 [[14C]-PhIP, 2-amino-1-methyl-6-phenylimidazo[4,5-b]pyridine]
- Transport across porcine jejunal tissue from animals with a different age (porcine jejunal tissue [1]): higher transport

Compound: Cn1c(=O)c2c(ncn2C)n(C)c1=O [caffeine]
- Apparent permeability (Papp) over time (porcine jejunal tissue [2]): constant Papp value over time

Compound: lipopolysaccharide [LPS]
- Lag time of transport across porcine ileal tissue (porcine ileal tissue): clear lag time of transport
